Data set [1] can be described thus: Log D7.4 (1-octanol/PBS shake method, absorbance). The format is physicochemical. The settings on record: 1-octanol/PBS pH 7.4, 50 μM, 2 h mixing at room temperature. As for the experimental part: A stock solution was prepared from each Ru complex using dimethyl sulfoxide (DMSO), then diluted to 6 mL and a concentration of 50 μM using phosphate-buffered saline (PBS, pH 7.4), where the final DMSO concentration was less than 5%. The absorbance spectra were measured, then 6 mL of 1-octanol was added, and the resulting biphasic sample was mixed at room temperature for 2 h using an IKA Trayster inversion mixer (60 rpm). Following this, the aqueous layer was extracted, and its absorbance spectra were measured. Log D values were determined using the equation below: LogD7.4=logAbs @ λmax before mixing/Abs @ λmax after mixing−1
The ability of Aβ-targeting therapeutics to cross the blood–brain barrier (BBB) is essential for their success. […] For predicting passage across the BBB, one metric that is used is the n-octanol/water partition coefficient of the molecule (log P). For Ru therapeutics, pH can play an important role in the speciation and stability of the complex; therefore, the determination of log D was performed. For such an analysis, the complexes were initially dissolved in DMSO, then diluted using PBS. After initial absorption measurements, the aqueous samples were mixed with an equal volume of 1-octanol for 2 h. The short mixing time is necessary to minimize any ligand exchange that may occur (vide infra), while still providing an accurate value for the partitioning. […] To the best of our knowledge, the partitioning for these complexes has not been evaluated previously, while the values obtained are similar to previous Ru(II)–arene complexes with bidentate ligands.

A further data set has as its target T1, Aβ40 (Homo sapiens, UniProt P05067).
T1 construct: Lyophilized Aβ40 was monomerized following previous procedures; purchased GenScript
The data set is described as follows: TEM imaging of DLS filtrates. The format is biochemical. The settings on record: for Ranking TEM: scale 1 to 5 (1 = best, 5 = worst), qualitative. On the procedure: Samples for TEM were prepared using the DLS filtrates following their analysis. An aliquot (20 µL) was added directly to a copper-coated formvar/carbon 300 mesh grid with a 63 µm pore size (Ted Pella). After settling for 1 min, the solvent was wicked away, then the grid was stained using 2% uranyl acetate (20 µL). After standing for one minute, the solvent was wicked away, and the grid was washed using dH2O (20 µL), which stayed on the grid for one minute before being wicked away. The grids were stored at room temperature until analysis. TEM images were collected using a high-resolution JEOL JEM 2100F operating at 200 kV.
The final evaluative step in the Aβ40 aggregation assay was imaging the samples using transmission electron microscopy (TEM). The samples used in the preparation of the TEM grids were those of the DLS filtrates, thereby allowing for a direct comparison between experimental methods, ultimately resulting in the same sample being measured by three different instruments. […] In order to determine the impact of each complex on Aβ40, multiple images were taken from each prepared grid (Figure S21), thereby providing an accurate representation of the particles.

The subject of the next data set is C6 glioma cells. The data set is described as follows: MTT cell viability assay, C6 glioma cells. As to conditions: for cell morphology versus DMSO-treated control (confocal microscopy): 20 µM; for Ranking Cytotoxicity: scale 1 to 5 (1 = best, 5 = worst), C6 glioma cells. The format is cell-based, Rattus norvegicus. As for the experimental part:
Cultures of adherent Rattus norvegicus pheochromocytoma cells (PC-12; ATCC CRL-1721) and axenic Rattus norvegicus C6 glioma cells (ATTC CCL-107) were prepared as previously reported. The cells were cultured using Dulbecco’s Modified Eagle’s medium with low glucose, sodium pyruvate, and without phenol red or L-glutamine (DMEM REF:11054-020; GIBCO; Waltham, MA, USA) and supplemented with 1.5% (v/v) heat-inactivated fetal bovine serum (GIBCO; Waltham, MA, USA), 10% (v/v) sterile filtered horse serum (Sigma-Aldrich, St. Louis, MO, USA), and 4% sterile L-glutamine (Sigma-Aldrich; St. Louis, MO, USA). Medium supplemented with sera was referred to as “complete medium”, while non-supplemented medium was designated as “incomplete”.
For the viability assays, both cell types were grown to confluency before being trypsinized, resuspended in 1 mL of complete medium per confluent well of a 6-well plate, diluted ten-fold, and then counted with a Scepter 2.0 Handheld Automated Cell Counter (Millipore, Burlington, MA, USA) affixed with a 60 µm sensor. Cells were subsequently seeded (adding 100 µL per well, thus adding an average of 1.0 × 10^4 cells per well) into poly-L-lysine-coated flat-bottomed 96-wells using separate plates for each cell type. Stock solutions of the Ru complexes were prepared in DMSO, with an appropriate dilution using DMSO to the testing concentrations of 40, 20, 2, or 0.2 µM. In all cases, the final concentration of DMSO was 1% with cell incubations. Solutions of the Ru complexes or DMSO were introduced 24 h after cell plating and incubated a further 24 h unless otherwise indicated. Replicate wells (n = 4) were set up for each experimental variation. No cell controls were also set up, containing the Ru complex in DMSO additions, so that potential spectral signals could be blanked out for the spectrophotometric 3-[4,5-dimethylthiazol-2-yl]-2,5-diphenyltetrazoliumbromide (MTT) viability assay, as described below.
To assess the viability of the cells with and without Ru additions, cell viability tests were performed using an MTT assay following the procedure of Mosmann with the following variations: Before adding the MTT reagent (5 mg/mL water), 90 µL of the complete medium was removed from each well, and 90 µL of incomplete medium was added. Then, 10 µL of MTT reagent was added per well, gently mixed, and incubated at ambient temperature for one hour. The reactions were stopped by the addition of 100 µL per well of the stopping reagent (10% v/v Triton X-100, 1 mM HCl in isopropanol) to lyse the cells and dissolve the formed formazan crystals. The absorbance values were recorded using a Bio-Rad® Microplate Reader Benchmark at 595 nm. All MTT data were normalized to the DMSO controls by calculating the average percent of DMSO control with the following formula: average cell+Ru MTT−average (Ru blank MTT)/average control cell MTT−average (control blank MTT) × 100
Data were obtained from 4 replicates and reported as a percent of control cells.
A final step in the evaluation of the Ru complexes was completed using a standard MTT cell viability assay towards two neuronal cells lines. The cell lines used were glial cells, as these are the most abundant cell type within the brain [61], and chromaffin cells, which would provide an indication regarding stress response. Taken together, these would provide information regarding the overall biocompatibility of the Ru complexes.
For orientation: Formazan colour is commonly taken as a measure of viable cells.

Data set [2] relates to pheochromocytoma cells (PC-12). Description: MTT cell viability assay, PC-12 cells. The class given is cell-based, Rattus norvegicus. The settings on record: 24 h. On the procedure:
Cultures of adherent Rattus norvegicus pheochromocytoma cells (PC-12; ATCC CRL-1721) and axenic Rattus norvegicus C6 glioma cells (ATTC CCL-107) were prepared as previously reported. The cells were cultured using Dulbecco’s Modified Eagle’s medium with low glucose, sodium pyruvate, and without phenol red or L-glutamine (DMEM REF:11054-020; GIBCO; Waltham, MA, USA) and supplemented with 1.5% (v/v) heat-inactivated fetal bovine serum (GIBCO; Waltham, MA, USA), 10% (v/v) sterile filtered horse serum (Sigma-Aldrich, St. Louis, MO, USA), and 4% sterile L-glutamine (Sigma-Aldrich; St. Louis, MO, USA). […]
For the viability assays, both cell types were grown to confluency before being trypsinized, resuspended in 1 mL of complete medium per confluent well of a 6-well plate, diluted ten-fold, and then counted with a Scepter 2.0 Handheld Automated Cell Counter (Millipore, Burlington, MA, USA) affixed with a 60 µm sensor. […]
To assess the viability of the cells with and without Ru additions, cell viability tests were performed using an MTT assay following the procedure of Mosmann with the following variations: Before adding the MTT reagent (5 mg/mL water), 90 µL of the complete medium was removed from each well, and 90 µL of incomplete medium was added. […] The absorbance values were recorded using a Bio-Rad® Microplate Reader Benchmark at 595 nm. […]

T1 sequence (P05067 672-711 limits assumed): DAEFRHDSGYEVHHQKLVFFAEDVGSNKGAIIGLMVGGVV

As for “[Ru(η^6-p-cymene)(4,4′-di-tert-butyl-2,2′-bipyridine)Cl]PF6 [RuBtB]”, the “Log D7.4” value in data set [1] stood at 0.84 ± 0.03. Moreover, the “Ranking TEM” value at Aβ40 is 4. For the same compound, the “cell morphology versus DMSO-treated control (confocal microscopy)” value in the data set on C6 glioma cells (C6 cells, 24 h) is “severely reduced in numbers and cell shapes”. Further, the “toxicity (MTT)” value with C6 glioma cells (C6 cells, 20 and 40 µM, 24 h) is “substantial toxicity”; in data set [2] (20 and 40 µM), “substantial toxicity”. Further, the “Ranking Cytotoxicity” value with C6 glioma cells is recorded as 5. For the same compound, the “IC50 (cell viability)” value in data set [2] (tested 0.2–40 µM) is recorded as “below the concentrations evaluated”.

For the compound “[Ru(η^6-p-cymene)(4,4′-dimethoxy-2,2′-bipyridine)Cl]PF6 [RuBMeO]”, the “Log D7.4” value in data set [1] is reported as −0.74 ± 0.08. At Aβ40, the “Ranking TEM” value was 5. In addition, in the data set on C6 glioma cells, the “Ranking Cytotoxicity” value was found to be 3.

On to `Cc1ccc(C(C)C)cc1.Cc1ccnc(-c2cc(C)ccn2)c1.F[P-](F)(F)(F)(F)F.[Cl-].[Ru+2]` [RuBMe, [Ru(η^6-p-cymene)(4,4′-dimethyl-2,2′-bipyridine)Cl]PF6], for which the “Log D7.4” value in data set [1] was −0.99 ± 0.13. The “Ranking TEM” value on Aβ40 is 3. The “Ranking Cytotoxicity” value in the data set on C6 glioma cells was determined as 2.

Turning to `Cc1ccc(C(C)C)cc1.F[P-](F)(F)(F)(F)F.[Cl-].[Ru+2].c1ccc(-c2ccccn2)nc1` [RuB, [Ru(η^6-p-cymene)(2,2′-bipyridine)Cl]PF6], the “Log D7.4” value in data set [1] was −1.90 ± 0.15. For the same compound, the “Ranking TEM” value at Aβ40 turned out to be 2. Further, in the data set with C6 glioma cells, the “Ranking Cytotoxicity” value is 4.

In the case of “[Ru(η^6-p-cymene)(4,4′-diamino-2,2′-bipyridine)Cl]PF6 [RuBA]”, the “Log D7.4” value in data set [1] is reported as −0.55 ± 0.03. Moreover, on Aβ40 (DLS filtrates after 6 h co-incubation), the “appearance of Aβ40 particles in TEM images” value is “most dispersed and least dense particles”. In addition, the “Ranking TEM” value at Aβ40 came to 1. Besides, in the data set with C6 glioma cells (C6 cells, 24 h), the “cell morphology versus DMSO-treated control (confocal microscopy)” value was “virtually indistinguishable”. The “Ranking Cytotoxicity” value with C6 glioma cells is recorded as 1.

For the origin of these results see paper PMC12024814, “Ruthenium(II)–Arene Complexes with a 2,2′-Bipyridine Ligand as Anti-Aβ Agents” (Biomolecules, 2025).
